Data as given in patent US7763446B2, “Chimeric DNA-binding proteins” (Massachusetts Institute of Technology, priority 1994, dated 2010).

What was measured:
[1] = test system: ZFHD1-FKBPx3 with FKBPx3-VP16 or FKBPx3-p65, pZHWTx8SVSEAP reporter; assay: FK1012-dependent SEAP transcriptional activation in 293 cells; format: cell-based; details: 24 hour incubation
Protocol: 293 cells were grown in D-MEM (Gibco BRL) supplemented with 10% Bovine Calf Serum. Cells in 35 mm dishes (2.5×10^5 cells/dish) were transiently transfected with use of calcium phosphate precipitation (Ausubel et. al., 1994). Each dish received 375 ng pZHWTx8SVSEAP; 12 ng pCGNNZFHD1-FKBPx3 and 25 ng pCGNNFKBPx3-VP16 or pCGNNFKBPx3-p65. Following transfection, 2 ml fresh media was added and supplemented with FK1012 to the desired concentration. After a 24 hour incubation […] aliquot of media was removed and assayed for SEAP activity as described (Spencer et. al., 1993).

[2] = hGH clearance after bolus administration; format: in vivo; details: i.p. or i.v.
Description: Therefore, the observed hGH secretion in this example appears to be a sustained phenomenon.

[3] = test system: ZFHD1-FKBPx3 and FRB-p65 fusion proteins, hGH reporter linked to ZFHD1 binding sites; assay: Rapamycin-dependent hGH expression in transfected HT1080 cell culture; format: cell-based; details: HT1080 cells with three constructs
Protocol: Using the approach described in Example 6, constructs were prepared encoding the ZFHD1-FKBPx3 fusion protein, a second fusion protein containing the FKBP:rapaymcin binding (“FRB”) region of FRAP linked to the p65 activation domain, and a reporter cassette containing a gene encoding human growth hormone linked to multiple ZFHD1 binding sites. The natural product, rapamycin, forms a ternary complex with FKBP12 and FRAP. Similarly, rapamycin is capable of binding to one or more of the FKBP domains and FRAP FRB domains of the fusion proteins.

[4] = test system: ZFHD1-FKBPx3 and FRB-p65 fusion proteins, hGH target gene in implanted cells; assay: Rapamycin-dependent serum hGH in nu/nu mice implanted with transfected HT1080 cells; format: in vivo; details: rapamycin i.v. 10-10,000 μg/kg, serum 17 hours after administration
Protocol: Human cells (2×10^6) transfected with plasmids encoding transcription factors ZFHD1-FKBPx3 and FRB-p65 and a target gene directing the expression of human growth hormone (hGH) were injected into the skeletal muscles of nu/nu mice. Mice were treated with the indicated concentration of rapamycin by tail vein injection. After 17 hours, serum hGH levels were determined by ELISA. Each point represents X±SEM (n=at least 5 per point). Control animals received either engineered cells without drug or drug (10^3 or 10^4 μg/kg) without engineered cells.
2×10^6 cells from the transfected HT1080 culture were administered to nu/nu mice by intramuscular injection. Following cell implantation, rapamycin was administered i.v. over a range of doses (from 10-10,000 μg/kg). Serum samples were collected from the mice 17 hours after rapamycin administration. Control groups consisted of mice that received no cells but 1.0 mg/kg rapamycin (i.v.) as well as mice that received the cells but no rapamycin.
Neither control group produced measurable hGH. The limit of detection of the hGH assay is 0.0125 ng/ml.

CO[C@H]1C[C@@H](C)C/C(C)=C/[C@@H](CCOC(=O)NCc2ccc(CNC(=O)OCC[C@@H]3/C=C(\C)C[C@H](C)C[C@H](OC)C4O[C@@](O)(C(=O)C(=O)N5CCCC[C@H]5C(=O)OC(/C(C)=C/[C@@H]5CC[C@@H](O)[C@H](OC)C5)[C@H](C)[C@@H](O)CC3=O)[C@H](C)C[C@H]4OC)cc2)C(=O)C[C@H](O)[C@@H](C)C(/C(C)=C/[C@@H]2CC[C@@H](O)[C@H](OC)C2)OC(=O)[C@@H]2CCCCN2C(=O)C(=O)[C@]2(O)OC1[C@H](OC)C[C@H]2C (some centres unmarked) [FK1012]
FK1012 concentration at peak activation [1]: 100 nM

hGH: human growth hormone, reporter gene product; bolus clearance stated
hGH clearance half-life [2]: less than 2 minutes | time to undetectable hGH levels [2]: ≤ 30 min

rapamycin
rapamycin-dependent expression of the hGH gene in cell culture [3]: rapamycin-dependent expression of the hGH gene | expression of hGH (circulating hGH) [4]: Dose-responsive expression of hGH
